The source of these data is ChEMBL document CHEMBL5331134, “Identification of Brain-Penetrant ATP-Competitive mTOR Inhibitors for CNS Syndromes” (J Med Chem, 2023).

Series [1] deals with T1, Serine/threonine-protein kinase mTOR (Mus musculus, UniProt Q9JLN9). Description: Inhibition of mTOR in Tsc1 knockout mouse neurons assessed as reduction in phosphorylated S6 level incubated for 4 hrs by Hoechst staining based immunofluorescence analysis. Type of series: cell-based, Neuron.
Series [2] addresses T2, Cytochrome P450 3A4 (Homo sapiens, UniProt P08684). Kind of series: Inhibition of CYP3A4 (unknown origin) assessed as Kobs. Type of series: ADME.
Series [3] is described as follows: Apparent permeability across apical to basolateral side in MDCK-MDR1 cells. Type of series: ADME, cell-based, Canis lupus familiaris. The conditions noted are these: dog.
The nature of series [4]: Apparent permeability across basolateral to apical side in MDCK-MDR1 cells. The note with it: dog. Type of series: ADME, cell-based, Canis lupus familiaris.
Series [5] can be described thus: Efflux ratio of apparent permeability across basolateral to apical side over apical to basolateral side in MDCK-MDR1 cells. Type of series: ADME, cell-based, Canis lupus familiaris. The conditions noted are these: dog.
Series [6] deals with Serine/threonine-protein kinase ATR (Homo sapiens, UniProt Q13535). Description: Inhibition of ATR (unknown origin)-driven CHK1 phosphorylation.
In series [7] the target is 3',5'-cyclic-AMP phosphodiesterase 4D (Homo sapiens, UniProt Q08499). Description: Inhibition of PDE4D (unknown origin).
A short description of series [8]: Solubility of compound at pH 6.8. The conditions noted are these: buffer. Type of series: physicochemical.
Series [9] has as its target T1, Serine/threonine-protein kinase mTOR. Kind of series: Inhibition of mTOR in TSC1 knockout mouse MEF cells assessed as reduction in phosphorylated S6 level at serine 240/244 residues incubated for 2 hrs by Hoechst/Alexa Fluor 647 staining based analysis. Type of series: cell-based.
Series [10] can be described thus: Phototoxicity against mouse BALB/3T3 clone A31 cells assessed as photo-irradiation factor incubated for 1 hr followed by irradiated with 5 J/cm^2 of light dose measured after 24 hrs by neutral red uptake assay. Type of series: toxicity, cell-based. The conditions noted are these: balb/3t3 clone a31, 1 h.
The nature of series [11]: Genotoxicity in human TK6 cells assessed as micronuclei formation by micronucleus test. Type of series: toxicity, cell-based.
Series [12] concerns the target T2, Cytochrome P450 3A4. Kind of series: Inhibition of CYP3A4 (unknown origin). Type of series: ADME.
A further series deals with CYP2D6 (Homo sapiens, UniProt P10635). Kind of series: Inhibition of CYP2D6 (unknown origin). Type of series: ADME.
In a further series the target is CYP2C9 (Homo sapiens, UniProt P11712). Description: Inhibition of CYP2C9 (unknown origin). Type of series: ADME.
Series [13] can be described thus: Metabolic stability in mouse liver microsomes assessed as intrinsic clearance at 1 uM incubated for 30 mins in presence of NADPH by LC-MS/MS analysis. Type of series: ADME, Microsome. The note with it: read-out: CLH.
Series [14] is described as follows: Metabolic stability in dog liver microsomes assessed as intrinsic clearance at 1 uM incubated for 30 mins in presence of NADPH by LC-MS/MS analysis. Type of series: ADME, Canis lupus familiaris, Microsome. The conditions noted are these: read-out: CLH.
Series [15] can be described thus: Metabolic stability in cynomolgus monkey liver microsomes assessed as intrinsic clearance at 1 uM incubated for 30 mins in presence of NADPH by LC-MS/MS analysis. Type of series: ADME, Macaca fascicularis, Microsome. The conditions noted are these: read-out: CLH.
Series [16] in a line: Metabolic stability in human liver microsomes assessed as intrinsic clearance at 1 uM incubated for 30 mins in presence of NADPH by LC-MS/MS analysis. Type of series: ADME, Microsome. The conditions noted are these: read-out: CLH.
The target in series [17] is Serine/threonine-protein kinase mTOR (Homo sapiens) (UniProt P42345). Kind of series: Inhibition of mTOR (unknown origin) assessed as residual activity at 10 uM relative to control.
Series [18] concerns the target Myosin light chain kinase, smooth muscle (Homo sapiens) (UniProt Q15746). Description: Inhibition of MYLK (unknown origin) assessed as residual activity at 10 uM relative to control.
Series [19] concerns the target 1-phosphatidylinositol 3-phosphate 5-kinase (Homo sapiens) (UniProt Q9Y2I7). Kind of series: Inhibition of PIKfyve in human U2OS cells coexpressing GFP-tagged FoxO3alpha assessed as residual activity at 10 uM incubated for 2 to 24 hrs by Hoechst staining based analysis relative to control. Type of series: cell-based. The conditions noted are these: time 2-24 hrs.

The target of series [20] is Dual specificity tyrosine-phosphorylation-regulated kinase 1A (Homo sapiens) (UniProt Q13627). Description: Inhibition of DYRK1A (unknown origin) assessed as residual activity at 10 uM relative to control.
The nature of series [21]: Phototoxicity against mouse BALB/3T3 clone A31 cells assessed as reduction in cell viability incubated for 1 hr followed by irradiated with 5 J/cm^2 of light dose measured after 24 hrs by neutral red uptake assay. Type of series: toxicity, cell-based. The note with it: balb/3t3 clone a31, 1 h.
Series [22] can be described thus: Genotoxicity in human TK6 cells assessed as micronuclei formation in presence of S9 fraction measured after 3 hrs by micronucleus test. Type of series: toxicity, subcellular. The note with it: s9, 3 h.
The nature of series [23]: Genotoxicity in human TK6 cells assessed as micronuclei formation in presence of S9 fraction measured after 20 hrs by micronucleus test. Type of series: toxicity, subcellular. The conditions noted are these: s9, 20 h.
The nature of series [24]: Genotoxicity in human TK6 cells assessed as micronuclei formation in absence of S9 fraction measured after 3 hrs by micronucleus test. The conditions noted are these: tk6, 3 h. Type of series: toxicity, cell-based.
The nature of series [25]: Genotoxicity in human TK6 cells assessed as micronuclei formation in absence of S9 fraction measured after 20 hrs by micronucleus test. Type of series: toxicity, cell-based. The note with it: tk6, 20 h.

Converted amounts (≈) assume the structure as drawn.

Chain of Serine/threonine-protein kinase ATR (Q13535 whole entry): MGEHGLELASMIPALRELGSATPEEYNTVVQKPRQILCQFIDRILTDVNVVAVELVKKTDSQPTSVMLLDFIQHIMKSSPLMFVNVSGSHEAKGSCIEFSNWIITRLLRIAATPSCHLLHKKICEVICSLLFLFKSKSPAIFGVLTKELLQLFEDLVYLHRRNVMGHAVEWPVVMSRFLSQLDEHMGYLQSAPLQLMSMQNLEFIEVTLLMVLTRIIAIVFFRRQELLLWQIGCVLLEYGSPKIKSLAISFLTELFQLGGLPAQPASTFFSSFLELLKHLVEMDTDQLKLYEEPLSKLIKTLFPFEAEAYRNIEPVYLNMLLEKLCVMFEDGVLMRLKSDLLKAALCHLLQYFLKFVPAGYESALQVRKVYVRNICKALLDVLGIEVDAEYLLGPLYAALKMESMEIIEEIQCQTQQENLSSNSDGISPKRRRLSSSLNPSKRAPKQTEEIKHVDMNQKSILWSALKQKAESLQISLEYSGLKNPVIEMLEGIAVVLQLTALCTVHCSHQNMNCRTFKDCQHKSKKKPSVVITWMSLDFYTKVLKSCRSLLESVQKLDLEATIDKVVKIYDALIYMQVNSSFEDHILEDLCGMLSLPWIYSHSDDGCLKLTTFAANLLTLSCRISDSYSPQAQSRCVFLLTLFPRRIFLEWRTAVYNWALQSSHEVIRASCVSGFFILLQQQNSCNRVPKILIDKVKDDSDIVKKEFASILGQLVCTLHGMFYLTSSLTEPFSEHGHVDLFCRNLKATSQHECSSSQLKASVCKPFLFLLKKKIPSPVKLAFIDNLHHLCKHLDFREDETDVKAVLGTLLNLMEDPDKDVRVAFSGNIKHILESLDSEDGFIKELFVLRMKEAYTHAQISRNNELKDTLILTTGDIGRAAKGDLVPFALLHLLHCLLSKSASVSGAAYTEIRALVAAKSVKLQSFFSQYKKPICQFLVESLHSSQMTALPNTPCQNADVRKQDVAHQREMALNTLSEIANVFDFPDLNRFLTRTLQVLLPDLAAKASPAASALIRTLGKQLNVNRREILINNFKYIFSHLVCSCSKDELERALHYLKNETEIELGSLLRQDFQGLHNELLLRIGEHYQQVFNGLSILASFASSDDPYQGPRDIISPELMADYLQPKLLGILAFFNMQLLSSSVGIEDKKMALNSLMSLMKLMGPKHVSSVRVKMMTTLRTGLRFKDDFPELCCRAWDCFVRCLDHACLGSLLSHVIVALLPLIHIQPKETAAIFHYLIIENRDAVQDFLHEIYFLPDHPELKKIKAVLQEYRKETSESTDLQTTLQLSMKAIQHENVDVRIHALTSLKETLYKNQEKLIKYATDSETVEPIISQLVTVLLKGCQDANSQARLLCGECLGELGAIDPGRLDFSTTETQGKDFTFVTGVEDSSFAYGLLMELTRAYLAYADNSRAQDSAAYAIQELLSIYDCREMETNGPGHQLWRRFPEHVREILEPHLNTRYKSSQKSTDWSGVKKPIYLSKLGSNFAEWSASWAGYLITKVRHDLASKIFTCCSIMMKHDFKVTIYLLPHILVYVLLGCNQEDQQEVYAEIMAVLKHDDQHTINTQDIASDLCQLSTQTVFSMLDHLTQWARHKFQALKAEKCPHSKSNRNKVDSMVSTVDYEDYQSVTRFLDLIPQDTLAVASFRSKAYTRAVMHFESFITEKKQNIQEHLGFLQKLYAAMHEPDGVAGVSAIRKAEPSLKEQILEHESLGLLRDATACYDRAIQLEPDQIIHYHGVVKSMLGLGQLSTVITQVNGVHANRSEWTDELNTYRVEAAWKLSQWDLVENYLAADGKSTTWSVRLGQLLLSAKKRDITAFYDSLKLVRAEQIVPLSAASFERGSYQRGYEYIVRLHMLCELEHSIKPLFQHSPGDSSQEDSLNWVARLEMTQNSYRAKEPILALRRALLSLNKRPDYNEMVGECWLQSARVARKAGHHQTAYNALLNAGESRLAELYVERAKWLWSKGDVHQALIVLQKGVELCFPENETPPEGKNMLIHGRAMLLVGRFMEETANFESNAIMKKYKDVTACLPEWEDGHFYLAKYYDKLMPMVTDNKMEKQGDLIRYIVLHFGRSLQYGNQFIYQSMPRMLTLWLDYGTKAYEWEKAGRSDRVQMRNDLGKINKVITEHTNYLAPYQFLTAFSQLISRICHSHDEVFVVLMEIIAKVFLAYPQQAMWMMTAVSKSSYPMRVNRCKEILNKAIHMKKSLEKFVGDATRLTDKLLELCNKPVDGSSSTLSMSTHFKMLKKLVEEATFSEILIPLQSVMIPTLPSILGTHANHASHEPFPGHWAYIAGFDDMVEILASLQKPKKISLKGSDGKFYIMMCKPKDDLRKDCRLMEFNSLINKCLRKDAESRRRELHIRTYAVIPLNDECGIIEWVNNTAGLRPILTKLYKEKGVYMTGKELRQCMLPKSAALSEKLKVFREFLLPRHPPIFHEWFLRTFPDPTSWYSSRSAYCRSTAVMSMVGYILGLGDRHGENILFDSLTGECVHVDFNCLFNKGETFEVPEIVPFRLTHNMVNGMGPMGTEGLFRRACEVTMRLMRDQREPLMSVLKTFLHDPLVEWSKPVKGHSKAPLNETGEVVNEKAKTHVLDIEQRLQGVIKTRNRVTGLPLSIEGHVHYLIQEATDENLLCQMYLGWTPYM
Chain of 3',5'-cyclic-AMP phosphodiesterase 4D (Q08499 whole entry): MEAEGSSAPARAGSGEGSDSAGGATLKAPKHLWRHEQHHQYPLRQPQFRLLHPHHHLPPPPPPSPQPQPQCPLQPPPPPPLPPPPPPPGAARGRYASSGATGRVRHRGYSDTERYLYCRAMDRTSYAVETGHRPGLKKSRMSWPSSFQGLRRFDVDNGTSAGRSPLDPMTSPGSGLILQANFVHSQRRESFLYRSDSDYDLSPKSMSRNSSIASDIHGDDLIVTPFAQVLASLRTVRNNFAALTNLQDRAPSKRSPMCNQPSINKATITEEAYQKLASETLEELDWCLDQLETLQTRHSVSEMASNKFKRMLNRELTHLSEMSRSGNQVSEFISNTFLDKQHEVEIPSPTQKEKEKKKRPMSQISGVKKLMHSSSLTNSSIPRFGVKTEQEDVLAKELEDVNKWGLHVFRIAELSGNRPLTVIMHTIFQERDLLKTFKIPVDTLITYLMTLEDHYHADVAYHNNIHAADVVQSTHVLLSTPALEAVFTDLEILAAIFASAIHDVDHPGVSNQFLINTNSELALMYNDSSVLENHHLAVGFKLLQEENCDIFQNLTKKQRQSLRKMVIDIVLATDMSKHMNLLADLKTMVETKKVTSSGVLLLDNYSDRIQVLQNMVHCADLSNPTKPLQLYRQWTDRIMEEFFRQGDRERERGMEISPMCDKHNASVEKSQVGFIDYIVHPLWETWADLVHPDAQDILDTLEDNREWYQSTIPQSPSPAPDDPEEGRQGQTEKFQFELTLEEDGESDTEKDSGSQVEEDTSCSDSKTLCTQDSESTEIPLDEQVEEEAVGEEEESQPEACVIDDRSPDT
T2 sequence (P08684 whole entry): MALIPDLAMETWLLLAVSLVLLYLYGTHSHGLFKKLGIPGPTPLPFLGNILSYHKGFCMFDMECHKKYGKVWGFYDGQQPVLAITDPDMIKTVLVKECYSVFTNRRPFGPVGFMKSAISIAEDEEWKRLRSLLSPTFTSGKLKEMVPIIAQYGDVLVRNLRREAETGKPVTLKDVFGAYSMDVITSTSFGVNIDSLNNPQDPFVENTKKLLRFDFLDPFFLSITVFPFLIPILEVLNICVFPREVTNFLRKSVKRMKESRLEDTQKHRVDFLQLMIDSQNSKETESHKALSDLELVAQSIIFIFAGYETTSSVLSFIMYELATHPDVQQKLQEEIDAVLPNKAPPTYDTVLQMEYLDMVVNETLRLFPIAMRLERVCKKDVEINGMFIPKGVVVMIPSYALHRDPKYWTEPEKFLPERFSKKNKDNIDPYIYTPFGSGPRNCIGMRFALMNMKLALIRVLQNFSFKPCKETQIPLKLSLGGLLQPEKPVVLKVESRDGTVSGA
Chain of CYP2C9 (P11712 whole entry): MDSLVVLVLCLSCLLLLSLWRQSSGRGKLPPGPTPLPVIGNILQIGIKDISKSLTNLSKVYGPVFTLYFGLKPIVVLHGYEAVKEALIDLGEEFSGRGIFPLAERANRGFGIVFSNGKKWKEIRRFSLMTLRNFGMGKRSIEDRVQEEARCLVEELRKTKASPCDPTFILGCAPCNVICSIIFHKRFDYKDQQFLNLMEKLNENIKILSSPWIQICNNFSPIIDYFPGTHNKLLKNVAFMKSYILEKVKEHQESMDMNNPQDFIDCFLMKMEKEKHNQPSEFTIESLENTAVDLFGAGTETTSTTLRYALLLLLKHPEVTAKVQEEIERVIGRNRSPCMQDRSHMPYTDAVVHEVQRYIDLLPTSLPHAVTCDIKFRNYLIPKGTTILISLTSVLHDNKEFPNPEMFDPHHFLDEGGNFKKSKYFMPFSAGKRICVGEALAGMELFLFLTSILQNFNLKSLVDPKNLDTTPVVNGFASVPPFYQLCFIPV
Chain of CYP2D6 (P10635 whole entry): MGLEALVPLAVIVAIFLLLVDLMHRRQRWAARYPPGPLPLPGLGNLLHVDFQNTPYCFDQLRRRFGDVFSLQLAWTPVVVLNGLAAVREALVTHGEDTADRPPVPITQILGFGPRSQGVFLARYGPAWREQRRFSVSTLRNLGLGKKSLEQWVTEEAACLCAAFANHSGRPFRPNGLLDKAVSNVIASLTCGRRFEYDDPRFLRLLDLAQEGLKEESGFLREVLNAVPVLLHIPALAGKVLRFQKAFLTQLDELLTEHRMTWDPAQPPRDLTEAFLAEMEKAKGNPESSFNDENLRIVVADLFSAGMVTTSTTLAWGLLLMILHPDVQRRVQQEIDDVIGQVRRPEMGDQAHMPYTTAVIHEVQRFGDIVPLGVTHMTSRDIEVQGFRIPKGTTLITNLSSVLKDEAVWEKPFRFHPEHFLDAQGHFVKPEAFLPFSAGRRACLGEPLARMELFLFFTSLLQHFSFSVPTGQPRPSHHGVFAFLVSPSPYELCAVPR

`CO[C@H]1C[C@@H]2CC[C@@H](C)[C@@](O)(O2)C(=O)C(=O)N2CCCC[C@H]2C(=O)O[C@H]([C@H](C)C[C@@H]2CC[C@@H](OCCO)[C@H](OC)C2)CC(=O)[C@H](C)/C=C(\C)[C@@H](O)[C@@H](OC)C(=O)[C@H](C)C[C@H](C)/C=C/C=C/C=C/1C` [EVEROLIMUS]: in [1], the IC50 was determined as 5 pM.

Consider `C[C@@H]1COCCN1c1cc(N2CCOC[C@@H]2C)nc2[nH]c(-c3nccs3)nc12`, for which the Kobs on Cytochrome P450 3A4 [2] was determined as 0.021 min⁻¹. The Papp A→B in series [3] was 12.7 ×10⁻⁶ cm/s. The Papp B→A in [4] amounted to 8.24 ×10⁻⁶ cm/s. In addition, the efflux ratio in series [5] was 0.66. The figures for the 50% inhibitory concentration (IC50) in [6] and in series [7] were 24 µM and 21 µM, respectively. Also, in series [8], the solubility was determined as 250 µg/mL (≈ 624 µM).

As for `C[C@@H]1COCCN1c1cc(N2CCOC[C@@H]2C)cc2sc(-c3cc[nH]n3)nc12`, the figures for the 50% inhibitory concentration (IC50) in series [9] and in series [7] were 0.015 µM and 0.042 µM, respectively.

As for `C[C@@H]1COCCN1c1cc(N2C3CCC2COC3)nc2[nH]c(-c3ccccn3)nc12`, the IC50 was determined as 0.0066 µM in [9], 2.25 µM in [6] and 9.2 µM in series [7]. In addition, the Kobs on Cytochrome P450 3A4 [2] was determined as 0.036 min⁻¹. Moreover, the Papp A→B in [3] came to 9.57 ×10⁻⁶ cm/s. The apparent permeability from basolateral to apical (Papp B→A) in series [4] amounted to 8.04 ×10⁻⁶ cm/s. Moreover, the efflux ratio in series [5] was found to be 0.84. The same compound displayed a solubility in series [8] of less than 2 µg/mL.

For `C[C@@H]1COCCN1c1nc(N2CCOC[C@@H]2C)cc2[nH]c(-c3cc[nH]n3)nc12`, the half-inhibitory concentration (IC50) in series [9] is 0.046 µM; in series [7], 11 µM.

Regarding `C[C@@H]1COCCN1c1cc(N2CCOC[C@@H]2C)nc2[nH]c(-c3cc[nH]n3)cc12`, the IC50 in series [9] worked out at 0.034 µM; in series [7], 16 µM.

As to `C[C@@H]1COCCN1c1nc(N2CCOC[C@@H]2C)nc2sc(-c3cc[nH]n3)nc12`, the IC50 was 0.005 µM in series [9], 33.2 µM against Cytochrome P450 3A4 [12], more than 50 µM against CYP2D6 and more than 50 µM at CYP2C9. Moreover, the Activity in series [10] is 253; in series [11], “Toxic”; in [17], 1.3%; in [18], 0.15%; in series [19], 0.3%; in series [20] it was 0.15%. Further, the Activity result in series [21], in series [22], in series [23], in series [24] and in series [25] was “Toxic” each time. The Kobs on Cytochrome P450 3A4 [2] turned out to be 0.006 min⁻¹. Moreover, the microsomal CLint at 1 µM in series [13] amounted to 22 µL/min/mg; in series [14], 26 µL/min/mg; in series [15] it was 82 µL/min/mg; in series [16], 92 µL/min/mg. Also, the apical-to-basolateral permeability (Papp A→B) in [3] stood at 27.4 ×10⁻⁶ cm/s. For the same compound, the Papp B→A in series [4] stood at 25.4 ×10⁻⁶ cm/s.

`C[C@@H]1COCCN1c1cc(N2CCOC[C@@H]2C)nc2[nH]c(-c3cc[nH]n3)nc12`: the concentration for half-maximal inhibition (IC50) in series [9] came out at 0.0077 µM; in series [6] it was 1.11 µM; in series [7], 18 µM. Also, the Kobs on Cytochrome P450 3A4 [2] was found to be 0.004 min⁻¹. Besides, the Papp A→B in [3] was 15.9 ×10⁻⁶ cm/s. In addition, the Papp B→A in [4] turned out to be 40 ×10⁻⁶ cm/s. Moreover, the efflux ratio in series [5] is 2.52. The compound also registered a solubility in series [8] of 160 µg/mL (≈ 417 µM).

On to `C[C@@H]1COCCN1c1nc(N2CCOC[C@@H]2C)cc2sc(-c3cc[nH]n3)nc12`, for which the IC50 in series [9] worked out at 0.096 µM; in series [7] it was 0.96 µM.

Consider `C[C@@H]1COCCN1c1cc(N2CCOC[C@@H]2C)nc2[nH]c(-c3cc(O)ccc3F)nc12`, for which the Kobs on Cytochrome P450 3A4 [2] is 0.004 min⁻¹. For the same compound, in [3], the Papp A→B is 25.6 ×10⁻⁶ cm/s. Besides, the Papp B→A in series [4] was determined as 15.5 ×10⁻⁶ cm/s. Also, in [5], the efflux ratio is 0.61. Besides, the IC50 was 7.14 µM in [6] and 6 µM in series [7]. In addition, in series [8], the solubility was determined as 53 µg/mL (≈ 124 µM).

Regarding `C[C@@H]1COCCN1c1nc(N2CCOC[C@@H]2C)nc2[nH]c(-c3cc[nH]n3)nc12`, the IC50 in series [9] amounted to 0.016 µM; in series [7], 4.9 µM.
